The values below come from patent US9981928B2, “Aryl sulfide derivatives and aryl sulfoxide derivatives as acaricides and insecticides” (BAYER CROPSCIENCE AKTIENGESELLSCHAFT, priority 2013, dated 2018).

Data set [1] concerns greenhouse red spider mite (Tetranychus urticae). Put plainly: Tetranychus urticae spray test, OP-resistant (TETRUR), bean leaf disks. It counts as in vivo. Conditions: bean leaf disks; application rate 500 g/ha; after 6 days. As to the method:
Tetranychus urticae—Spray Test, OP-Resistant (TETRUR)
Solvent: 78.0 parts by weight of acetone
• 1.5 parts by weight of dimethylformamide Emulsifier: alkylaryl polyglycol ether
To produce a suitable preparation of active compound, 1 part by weight of active compound is dissolved using the stated parts by weight of solvent and made up with water containing an emulsifier concentration of 1000 ppm until the desired concentration is attained. To produce further test concentrations, the preparation is diluted with emulsifier-containing water.
disks of bean leaves (Phaseolus vulgaris) infested with all stages of the greenhouse red spider mite (Tetranychus urticae) are sprayed with an active compound preparation of the desired concentration.
After 6 days, the efficacy in % is determined. 100% means that all the spider mites have been killed; 0% means that none of the spider mites have been killed.

Data set [2] can be described thus: log P determination by HPLC on reversed-phase columns (C 18), analogously to OECD Guideline 117. The conditions noted are these: for logP (HCOOH): LC-MS in the acidic range, pH 2.7, 0.1% aqueous formic acid / acetonitrile; for logP (HCOOH) / logP (neutral): HPLC reversed-phase C 18; for logP (neutral): LC-MS in the neutral range, pH 7.8, 0.001 molar aqueous ammonium hydrogencarbonate / acetonitrile. It counts as physicochemical. As to the method:
The log P values were determined analogously to OECD Guideline 117 (EC Directive 92/69/EEC) by HPLC (high-performance liquid chromatography) using reversed-phase columns (C 18), by the following methods:
[a] The LC-MS determination in the acidic range was effected at pH 2.7 with 0.1% aqueous formic acid and acetonitrile (contains 0.1% formic acid) as eluents; linear gradient from 10% acetonitrile to 95% acetonitrile. log P^[a] is also referred to as log P(HCOOH). [b] LC-MS determination in the neutral range was effected at pH 7.8 with 0.001 molar aqueous ammonium hydrogencarbonate solution and acetonitrile as eluents; linear gradient from 10% acetonitrile to 95% acetonitrile. log P^[…] is also referred to as log P(neutral).

Setting [3] is: reversed-phase C18 HPLC column, acidic range, pH 2.7, 0.1% aqueous formic acid and acetonitrile, read-out: log P[a] / log P(HCOOH).
The mark [4] stands for this setting: reversed-phase C18 HPLC column, neutral range, pH 7.8, 0.001 molar aqueous ammonium hydrogencarbonate and acetonitrile, read-out: log P[b] / log P(neutral).

Like-named read-outs stand apart in the source and are kept apart here.

`Cc1cc(C)c([S+]([O-])CC(F)(F)F)cc1N1C(=O)C(=O)N(CC(F)F)C1=O` (stereo not shown) [Example 184] displayed an efficacy in % in data set [1] of 100%. Moreover, the “logP (HCOOH)” value in data set [2] was 2.44.
In turn, `Cc1ccc(-n2c(=O)n(C3CC3)c(=O)n2C(C)C)cc1SCC(F)(F)F` [Example 63] returned an efficacy in % in data set [1] of 90%. In addition, in data set [2], the “logP (HCOOH)” value came out at 3.65 and the “logP (neutral)” value is reported as 3.57.
With `COCCCn1c(=O)n(C)n(-c2cc(SCC(F)(F)F)c(C)cc2F)c1=O` [Example 159], the efficacy in % in data set [1] is 100%. Also, in data set [2], the “logP (HCOOH)” value is reported as 2.96 and the “logP (neutral)” value is 2.95.
As to `C=CCn1c(=O)n(C2CC2)c(=O)n1-c1cc(SCC(F)(F)F)c(C)cc1F` [Example 130], the efficacy in % in data set [1] was found to be 100%. Further, in data set [2], the “logP (HCOOH)” value amounted to 3.31 and the “logP (neutral)” value is 3.28.
Consider `CCn1c(=O)n(C)n(-c2ccc(C)c([S+]([O-])CC(F)(F)F)c2)c1=O` (stereo not shown) [Example 89], for which the efficacy in % in data set [1] worked out at 100%. Moreover, in data set [2], the “logP (HCOOH)” value is 1.96 and the “logP (neutral)” value is given as 1.91.
Consider `Cn1c(=O)[nH]n(C2CCCC2)c1=O` [drawing 120 R1=cyclopentyl R10=CH3, 1-cyclopentyl-4-methyl-1,2,4-triazolidine-3,5-dione], for which, in data set [2] (setting [3]), the chromatographic logP is 0.78.
For the compound `Cn1c(OCC2CC2)n[nH]c1=O` [drawing 121 R1=CH2-cyclopropyl R10=CH3, 5-(cyclopropylmethoxy)-4-methyl-2,4-dihydro-3H-1,2,4-triazol-3-one], the chromatographic logP amounted to 0.84 in data set [2] (setting [3]) and 0.88 in data set [2] (setting [4]).
As for `CCn1c(=O)n(C(C)C)c(=O)n1-c1cc([S+]([O-])CC(F)(F)F)c(C)cc1F` (stereo not shown) [Example 93], in data set [2], the “logP (HCOOH)” value worked out at 2.58 and the “logP (neutral)” value is listed as 2.54.
Take `[O-][S+](CC(F)(F)F)c1cc(B(O)O)c(Cl)cc1Cl` (stereo not shown) [VIIIb-6, {2,4-Dichloro-5-[(2,2,2-trifluoroethyl)sulfinyl]phenyl}boronic acid]: the chromatographic logP in data set [2] (setting [3]) is 1.86; in data set [2] (setting [4]), 1.51.
`Cc1cc(C)c([S+]([O-])CC(F)(F)F)cc1N1CCNC1=O` (stereo not shown) [Example 4, 1-{2,4-Dimethyl-5-[(2,2,2-trifluoroethyl)sulfinyl]phenyl}imidazolidin-2-one]: the chromatographic logP in data set [2] (setting [3]) amounted to 1.51; in data set [2] (setting [4]) it was 1.52.
For `[O-][S+](CC(F)(F)F)c1cc(B(O)O)ccc1Cl` (stereo not shown) [VIIIb-3, {4-Chloro-3-[(2,2,2-trifluoroethyl)sulfinyl]phenyl}boronic acid], the figures for the chromatographic logP in data set [2] (setting [3]) and in data set [2] (setting [4]) were 1.74 and 1.68, respectively.
For the compound `O=[N+]([O-])c1ccc(Cl)c(SSc2cc([N+](=O)[O-])ccc2Cl)c1` [XIX-3, 1,1′-Disulfanediylbis(2-chloro-5-nitrobenzene)], the chromatographic logP in data set [2] (acidic range, pH 2.7, 0.1% aqueous formic acid and acetonitrile, read-out: log P[a] / log P(HCOOH)) came out at 3.31; in data set [2] (neutral range, pH 7.8, 0.001 molar aqueous ammonium hydrogencarbonate and acetonitrile, read-out: log P[b] / log P(neutral)) it was 3.35.
As to `CCn1c(=O)n(-c2ccccc2)c(=O)n1-c1cc([S+]([O-])CC(F)(F)F)c(C)cc1F` (stereo not shown) [Example 88, 1-Ethyl-2-{2-fluoro-4-methyl-5-[(2,2,2-trifluoroethyl)sulfinyl]phenyl}-4-phenyl-1,2,4-triazolidine-3,5-dione], the chromatographic logP in data set [2] (setting [3]) amounted to 2.71; in data set [2] (setting [4]), 2.66.
Take `Cn1[nH]c(=O)n(-c2cccc(C(F)(F)F)c2)c1=O` [1-methyl-4-[3-(trifluoromethyl)phenyl]-1,2,4-triazolidine-3,5-dione]: the chromatographic logP in data set [2] (setting [3]) is 1.53.
Turning to `COc1n[nH]c(=O)n1C1CC1` [drawing 121 R1=CH3 R10=cyclopropyl, 4-cyclopropyl-5-methoxy-2,4-dihydro-3H-1,2,4-triazol-3-one], the values for the chromatographic logP in data set [2] (setting [3]) and in data set [2] (setting [4]) were 0.27 and 0.31, respectively.
As to `OB(O)c1cc(SCC(F)(F)F)c(Cl)cc1Cl` [VIIIa-6, {2,4-Dichloro-5-[(2,2,2-trifluoroethyl)sulfanyl]phenyl}boronic acid], the chromatographic logP came to 2.61 in data set [2] (setting [3]) and 2.52 in data set [2] (setting [4]).
`Cn1[nH]c(=O)n(C(C)(C)C)c1=O` [drawing 120 R1=CH3 R10=C(CH3)3, 4-tert-butyl-1-methyl-1,2,4-triazolidine-3,5-dione]: in data set [2] (setting [3]), the chromatographic logP is 0.83.
In the case of `Cc1cc(F)c(-n2c(=S)n(C3CC3)c(=O)n2C)cc1SCC(F)(F)F` [4-cyclopropyl-1-{2-fluoro-4-methyl-5-[(2,2,2-trifluoroethyl)sulfanyl]phenyl}-2-methyl-5-thioxo-1,2,4-triazolidin-3-one], the figures for the chromatographic logP in data set [2] (setting [3]) and in data set [2] (setting [4]) were 3.24 and 3.18, respectively.
As for `Cc1cc(F)c(-n2c(=O)[nH]n(C)c2=O)cc1SCC(F)(F)F` [4-[2-Fluoro-4-methyl-5-[(2,2,2-trifluoroethyl)sulfanyl]phenyl]-1-methyl-1,2,4-triazolidine-3,5-dione], the chromatographic logP in data set [2] (setting [3]) worked out at 2.02.
As for `COc1ccc(B(O)O)cc1SCC(F)(F)F` [VIIIa-8, {4-Methoxy-3-[(2,2,2-trifluoroethyl)sulfanyl]phenyl}boronic acid], the chromatographic logP in data set [2] (setting [3]) was determined as 1.94; in data set [2] (setting [4]) it was 1.93.
On to `C=CCn1c(OC)n[nH]c1=O` [drawing 121 R1=CH3 R10=CH2CH═CH2, 4-allyl-5-methoxy-2,4-dihydro-3H-1,2,4-triazol-3-one], for which the chromatographic logP was found to be 0.45 in data set [2] (setting [3]) and 0.47 in data set [2] (setting [4]).
As to `CCn1c(=O)n(CC(C)C)n(-c2cc(SCC(F)(F)F)c(C)cc2F)c1=O` [Example 148], in data set [2], the “logP (HCOOH)” value is on record as 3.82 and the “logP (neutral)” value is 3.78.
Take `Cc1cc(F)c(-n2c(=O)n(C3CC3)c(=O)n2C(C)(C)C)cc1SCC(F)(F)F` [Example 144]: in data set [2], the “logP (HCOOH)” value was found to be 4.08 and the “logP (neutral)” value is 4.07.
With `Cc1cc(F)c(NCC(C)O)cc1SCC(F)(F)F` (stereo not shown) [1-[2-Fluoro-4-methyl-5-(2,2,2-trifluoroethylsulfanyl)aniline]propan-2-ol], the chromatographic logP in data set [2] (setting [3]) stood at 3.01.
As to `OB(O)c1ccc(Cl)c(SCC(F)(F)F)c1` [VIIIa-3, {4-Chloro-3-[(2,2,2-trifluoroethyl)sulfanyl]phenyl}boronic acid], the chromatographic logP in data set [2] (setting [3]) was determined as 2.4; in data set [2] (setting [4]), 2.41.
As to `Cc1cc(F)c(-n2c(=O)n(C(C)C)c(=O)n2CC(F)(F)F)cc1SCC(F)(F)F` [Example 146], in data set [2], the “logP (HCOOH)” value was determined as 3.85 and the “logP (neutral)” value is recorded as 3.90.
Regarding `Cc1cc(F)c(-n2c(=O)n(C(C)C)c(=O)n2CC(F)(F)F)cc1[S+]([O-])CC(F)(F)F` (racemic) [Example 153], in data set [2], the “logP (HCOOH)” value was found to be 2.95 and the “logP (neutral)” value is on record as 3.04.
Regarding `CCC(C)n1[nH]c(=O)n(C2CC2)c1=O` (stereo not shown) [drawing 120 R1=CH(CH3)CH2CH3 R10=cyclopropyl, 1-sec-butyl-4-cyclopropyl-1,2,4-triazolidine-3,5-dione], the chromatographic logP in data set [2] (setting [3]) worked out at 0.82.
Turning to `FC(F)(F)CSc1cc(Br)ccc1Br` [VIIa-13, 1,4-Dibromo-2-[(2,2,2-trifluoroethyl)sulfanyl]benzene], the chromatographic logP in data set [2] (setting [3]) came to 4.29; in data set [2] (setting [4]), 4.25.
Take `CCn1c(=O)n(CC)n(-c2ccc(C)c(SCC(F)(F)F)c2)c1=O` [Example 100, 1,4-Diethyl-2-{4-methyl-3-[(2,2,2-trifluoroethyl)sulfanyl]phenyl}-1,2,4-triazolidine-3,5-dione]: the chromatographic logP in data set [2] (setting [3]) turned out to be 3.32; in data set [2] (setting [4]), 3.29.
As for `CCn1[nH]c(=O)n(C(C)C)c1=O` [drawing 120 R1=CH2CH3 R10=CH(CH3)2, 1-ethyl-4-isopropyl-1,2,4-triazolidine-3,5-dione], the chromatographic logP in data set [2] (setting [3]) turned out to be 0.62.
For the compound `Cc1cc(F)c(-n2c(=O)n(C)c(=O)n2C2C=CCCC2)cc1[S+]([O-])CC(F)(F)F` (stereo not shown) [Example 96], in data set [2], the “logP (HCOOH)” value is given as 2.66 and the “logP (neutral)” value worked out at 2.61.
On to `Fc1cc(F)c(SCC(F)(F)F)cc1Br` [VIIa-15, 1-Bromo-2,4-difluoro-5-[(2,2,2-trifluoroethyl)sulfanyl]benzene], for which the chromatographic logP was 3.89 in data set [2] (setting [3]) and 3.86 in data set [2] (setting [4]).
Take `Cc1cc(F)c(B2OC(C)(C)C(C)(C)O2)cc1SCC(F)(F)F` [2-{2-Fluoro-4-methyl-5-[(2,2,2-trifluoroethyl)sulfanyl]phenyl}-4,4,5,5-tetramethyl-1,3,2-dioxaborolane]: the values for the chromatographic logP in data set [2] (setting [3]) and in data set [2] (setting [4]) were 4.91 and 4.81, respectively.
As to `Cc1cc(F)c(NC(=S)NCC(F)(F)F)cc1SCC(F)(F)F` [1-{2-Fluoro-4-methyl-5-[(2,2,2-trifluoroethyl)sulfanyl]phenyl}-3-(2,2,2-trifluoroethyl)thiourea], the chromatographic logP was 3.32 in data set [2] (setting [3]) and 3.24 in data set [2] (setting [4]).
